Measurements published in patent publication US20060115502A1, “Cosmetic composition based on cirsimarin” (GATTEFOSSE SAS, priority 2003, published 2006).

Assays:
A1 receptor = molecular target: T1, A1 receptor (Homo sapiens, UniProt P30542); details: from literature; cited from earlier work
T1 sequence (P30542 1-326): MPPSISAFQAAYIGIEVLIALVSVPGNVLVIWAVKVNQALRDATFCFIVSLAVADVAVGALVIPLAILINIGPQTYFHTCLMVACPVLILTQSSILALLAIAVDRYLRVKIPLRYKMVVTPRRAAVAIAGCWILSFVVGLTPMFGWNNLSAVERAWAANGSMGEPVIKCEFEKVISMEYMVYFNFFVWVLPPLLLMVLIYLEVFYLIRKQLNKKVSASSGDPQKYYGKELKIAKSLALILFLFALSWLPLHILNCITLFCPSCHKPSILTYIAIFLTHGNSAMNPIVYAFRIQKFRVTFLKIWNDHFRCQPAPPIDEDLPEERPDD

isolated adipocytes = experiment: Lipolytic activity in vitro on isolated adipocytes (fatty acids released, NEFA C kit); type: cell-based, rats; details: cirsimarin tested at 0.5 mM and 0.1 mM; 1 hour at 37° C.; FIG. 2
Method: a. Positive references and products to be assessed • Noradrenalin (syn. Norepinephrine NE): this molecule, with a molar mass of […], is assessed at the final concentration of 1 μM in a Krebs-Ringer buffer at 4% albumin. • Caffeine: this molecule, with a molar mass of 194.2 g, is assessed at the final concentration of 0.5 mM in a Krebs-Ringer buffer at 4% albumin. • Theophylline: this molecule, with a molar mass of 180.2, is assessed at the final concentration of 0.5 mM in a Krebs-Ringer buffer at 4% albumin. • Cirsimarin: this molecule, with a molar mass of 476.44, is tested at 0.5 mM and 0.1 mM. This molecule is first solubilized in a mixture of solvents: NaOH 0.2 M/DMSO (95/5; v/v). […]
The lipolytic activity is measured by the quantity of fatty acids released; for this, a NEFA C (Non Esterified Fatty Acid/Colorimetric) colorimetric dosage kit sold by Wako® Chemical GmbH is used.
The quantity of fatty acids present in tubes 0 minus that present in tubes 00 corresponds to the basal lipolysis of the adipocytes in the buffer. The quantity of fatty acids present in tubes 0 solvent minus that present in tubes 00 corresponds to the basal lipolysis of the adipocytes in the buffer containing the cirsimarin solution solvent. The quantity of fatty acids released in reaction tubes minus that present in tubes 00 corresponds to the lipolysis induced by the molecules studied.

lipolysis = details: documents by Nogowski and Jacobson; cited from earlier work

Structure (SMILES) | A1 receptor antagonist properties (A1 receptor) | lipolytic activity (quantity of fatty acids released) (isolated adipocytes) | lipolytic activity (lipolysis)
COc1cc2oc(-c3ccc(O[C@@H]4O[C@H](CO)[C@@H](O)[C@H](O)[C@H]4O)cc3)cc(=O)c2c(O)c1OC [cirsimarin, 5-hydroxy-6,7-dimethoxyflavone 4′-O-glucoside] | A1 receptor antagonist properties | proven in vitro lipolytic activity | 
O=c1c(-c2ccc(O)cc2)coc2cc(O)cc(O)c12 [genistein] | identified as an A1 receptor antagonist |  | negligible lipolytic activity
